{
  "source": "patent US6740642B2",
  "about": "“Macrolides with antibacterial activity” (BAsilea Parmaceutica AG, priority 2000, dated 2004)",
  "key": {"H. influenzae 11": {"tested_on": "H. influenzae 11", "test": "MIC, agar dilution, HTM medium", "assay_type": "cell-based, Haemophilus influenzae", "source_text": "(§1) The biological activities of compounds of the present invention against Haemophilus influenzae have been determined by standard agar dilution method using HTM medium (National Committee for Clinical Laboratory Standards. 1997. Methods for dilution antimicrobial susceptibility tests for bacteria that grow aerobically, 4th edition. Approved standard M7-A4. National Committee for Clinical Laboratory Standards, Wayne, Pa.)."}, "H. influenzae 12214": {"tested_on": "H. influenzae 12214", "test": "MIC, agar dilution, HTM medium", "assay_type": "cell-based, Haemophilus influenzae", "source_text": "as §1"}, "H. influenzae 1": {"tested_on": "H. influenzae 1", "test": "MIC, agar dilution, HTM medium", "assay_type": "cell-based, Haemophilus influenzae", "source_text": "as §1"}, "H. influenzae H36 ODL": {"tested_on": "H. influenzae H36 ODL", "test": "MIC, agar dilution, HTM medium", "assay_type": "cell-based, Haemophilus influenzae", "source_text": "as §1"}, "H. influenzae 23145": {"tested_on": "H. influenzae 23145", "test": "MIC, agar dilution, HTM medium", "assay_type": "cell-based, Haemophilus influenzae", "source_text": "as §1"}, "H. influenzae ATCC 9334": {"tested_on": "H. influenzae ATCC 9334", "test": "MIC, agar dilution, HTM medium", "assay_type": "cell-based, Haemophilus influenzae", "source_text": "as §1"}, "H. influenzae 23369": {"tested_on": "H. influenzae 23369", "test": "MIC, agar dilution, HTM medium", "assay_type": "cell-based, Haemophilus influenzae", "source_text": "as §1"}, "H. influenzae 3201": {"tested_on": "H. influenzae 3201", "test": "MIC, agar dilution, HTM medium", "assay_type": "cell-based, Haemophilus influenzae", "source_text": "as §1"}, "H. influenzae H13 LAH": {"tested_on": "H. influenzae H13 LAH", "test": "MIC, agar dilution, HTM medium", "assay_type": "cell-based, Haemophilus influenzae", "source_text": "as §1"}, "H. influenzae 3457": {"tested_on": "H. influenzae 3457", "test": "MIC, agar dilution, HTM medium", "assay_type": "cell-based, Haemophilus influenzae", "source_text": "as §1"}, "H. influenzae B 1501": {"tested_on": "H. influenzae B 1501", "test": "MIC, agar dilution, HTM medium", "assay_type": "cell-based, Haemophilus influenzae", "source_text": "as §1"}, "H. influenzae Christy": {"tested_on": "H. influenzae Christy", "test": "MIC, agar dilution, HTM medium", "assay_type": "cell-based, Haemophilus influenzae", "source_text": "as §1"}, "H. influenzae QK 12/87": {"tested_on": "H. influenzae QK 12/87", "test": "MIC, agar dilution, HTM medium", "assay_type": "cell-based, Haemophilus influenzae", "source_text": "as §1"}, "H. influenzae 4139": {"tested_on": "H. influenzae 4139", "test": "MIC, agar dilution, HTM medium", "assay_type": "cell-based, Haemophilus influenzae", "source_text": "as §1"}, "H. influenzae H20 HDL": {"tested_on": "H. influenzae H20 HDL", "test": "MIC, agar dilution, HTM medium", "assay_type": "cell-based, Haemophilus influenzae", "source_text": "as §1"}, "H. influenzae QK 50": {"tested_on": "H. influenzae QK 50", "test": "MIC, agar dilution, HTM medium", "assay_type": "cell-based, Haemophilus influenzae", "source_text": "as §1"}, "H. influenzae Rd KW20": {"tested_on": "H. influenzae Rd KW20", "test": "MIC, agar dilution, HTM medium", "assay_type": "cell-based, Haemophilus influenzae", "source_text": "as §1"}, "H. influenzae 3640": {"tested_on": "H. influenzae 3640", "test": "MIC, agar dilution, HTM medium", "assay_type": "cell-based, Haemophilus influenzae", "source_text": "as §1"}, "H. influenzae ATCC 49247": {"tested_on": "H. influenzae ATCC 49247", "test": "MIC, agar dilution, HTM medium", "assay_type": "cell-based, Haemophilus influenzae", "source_text": "as §1"}, "H. influenzae H28 HEL": {"tested_on": "H. influenzae H28 HEL", "test": "MIC, agar dilution, HTM medium", "assay_type": "cell-based, Haemophilus influenzae", "source_text": "as §1"}, "H. influenzae 2947": {"tested_on": "H. influenzae 2947", "test": "MIC, agar dilution, HTM medium", "assay_type": "cell-based, Haemophilus influenzae", "source_text": "as §1"}, "S. aureus ATCC29213": {"tested_on": "S. aureus ATCC29213", "test": "MIC, standard microdilution", "assay_type": "cell-based, Staphylococcus aureus", "in_short": "(§2)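 Antibacterial activity was measured by the standard microdilution technique. The method followed the NCCLS dilution standard for aerobically growing bacteria (M7-A4).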"}, "S. aureus 745": {"tested_on": "S. aureus 745", "test": "MIC, standard microdilution", "assay_type": "cell-based, Staphylococcus aureus", "in_short": "as §2"}, "S. aureus 1086": {"tested_on": "S. aureus 1086", "test": "MIC, standard microdilution", "assay_type": "cell-based, Staphylococcus aureus", "in_short": "as §2"}, "St. pneumoniae 1/4": {"tested_on": "St. pneumoniae 1/4", "test": "MIC, standard microdilution", "assay_type": "cell-based, Streptococcus pneumoniae", "in_short": "as §2"}, "St. pneumoniae 1/1": {"tested_on": "St. pneumoniae 1/1", "test": "MIC, standard microdilution", "assay_type": "cell-based, Streptococcus pneumoniae", "in_short": "as §2"}, "St. pneumoniae SL199T": {"tested_on": "St. pneumoniae SL199T", "test": "MIC, standard microdilution", "assay_type": "cell-based, Streptococcus pneumoniae", "in_short": "as §2"}, "St. pneumoniae 12288": {"tested_on": "St. pneumoniae 12288", "test": "MIC, standard microdilution", "assay_type": "cell-based, Streptococcus pneumoniae", "in_short": "as §2"}, "[1]": {"tested_on": "P. aeruginosa ATCC27853 (+Ery. 32 μg/ml)", "test": "MIC, standard microdilution", "assay_type": "cell-based", "in_short": "as §2"}, "E. coli ATCC25922": {"tested_on": "E. coli ATCC25922", "test": "MIC, standard microdilution", "assay_type": "cell-based", "in_short": "as §2"}},
  "data": [
    {"smiles": "CC[C@H]1OC(=O)[C@H](C)C(=O)[C@H](C)[C@@H](O[C@@H]2O[C@H](C)C[C@H](N(C)C)[C@H]2O)[C@](C)(OC)C[C@@H](C)C(=O)[C@H](C)[C@H]2[C@H](SCCn3ccc(=O)[nH]c3=O)C(=O)O[C@@]21C", "note": "[Compound I-6, (3S,3aR,4R,6R,8R,9R,10R,12R,15R,15aS)-15-Ethyloctahydro-8-methoxy-4,6,8,10,12,15a-hexamethyl-3-[[2-[2,4-1H,3H-pyriminedione-1-yl]ethyl]-thio]-9-[[3,4,6-trideoxy-3-(dimethylamino)-β-D-xylo-hexopyranosyl]oxy]-2H-furo[2,3-c]oxacyclotetradecin-2,5,11,13(3H,6H,12H)-tetrone]", "values": [
      {"measurement": "MIC", "setting": "H. influenzae 11", "result": 4, "unit": "mg/L"},
      {"measurement": "MIC", "setting": "H. influenzae 12214", "result": 4, "unit": "mg/L"},
      {"measurement": "MIC", "setting": "H. influenzae 1", "result": 4, "unit": "mg/L"},
      {"measurement": "MIC", "setting": "H. influenzae H36 ODL", "result": 4, "unit": "mg/L"},
      {"measurement": "MIC", "setting": "H. influenzae 23145", "result": 4, "unit": "mg/L"},
      {"measurement": "MIC", "setting": "H. influenzae ATCC 9334", "result": 2, "unit": "mg/L"},
      {"measurement": "MIC", "setting": "H. influenzae 23369", "result": 4, "unit": "mg/L"},
      {"measurement": "MIC", "setting": "H. influenzae 3201", "result": 4, "unit": "mg/L"},
      {"measurement": "MIC", "setting": "H. influenzae H13 LAH", "result": 2, "unit": "mg/L"},
      {"measurement": "MIC", "setting": "H. influenzae 3457", "result": 0.25, "unit": "mg/L"},
      {"measurement": "MIC", "setting": "H. influenzae B 1501", "result": 2, "unit": "mg/L"},
      {"measurement": "MIC", "setting": "H. influenzae Christy", "result": 2, "unit": "mg/L"},
      {"measurement": "MIC", "setting": "H. influenzae QK 12/87", "result": 1, "unit": "mg/L"},
      {"measurement": "MIC", "setting": "H. influenzae 4139", "result": 2, "unit": "mg/L"},
      {"measurement": "MIC", "setting": "H. influenzae H20 HDL", "result": 1, "unit": "mg/L"},
      {"measurement": "MIC", "setting": "H. influenzae QK 50", "result": 2, "unit": "mg/L"},
      {"measurement": "MIC", "setting": "H. influenzae Rd KW20", "result": 2, "unit": "mg/L"},
      {"measurement": "MIC", "setting": "H. influenzae 3640", "result": 2, "unit": "mg/L"},
      {"measurement": "MIC", "setting": "H. influenzae ATCC 49247", "result": 2, "unit": "mg/L"},
      {"measurement": "MIC", "setting": "H. influenzae H28 HEL", "result": 2, "unit": "mg/L"},
      {"measurement": "MIC", "setting": "H. influenzae 2947", "result": 4, "unit": "mg/L"},
      {"measurement": "minimum inhibitory concentration (MIC)", "setting": "S. aureus ATCC29213", "result": "<=0.12 μg/ml"},
      {"measurement": "minimum inhibitory concentration (MIC)", "setting": "S. aureus 745", "result": ">16", "unit": "mg/L"},
      {"measurement": "minimum inhibitory concentration (MIC)", "setting": "S. aureus 1086", "result": "<=0.12 μg/ml"},
      {"measurement": "minimum inhibitory concentration (MIC)", "setting": "St. pneumoniae 1/4", "result": "<=0.12 μg/ml"},
      {"measurement": "minimum inhibitory concentration (MIC)", "setting": "St. pneumoniae 1/1", "result": "<=0.12 μg/ml"},
      {"measurement": "minimum inhibitory concentration (MIC)", "setting": "St. pneumoniae SL199T", "result": 1, "unit": "mg/L"},
      {"measurement": "minimum inhibitory concentration (MIC)", "setting": "St. pneumoniae 12288", "result": 4, "unit": "mg/L"},
      {"measurement": "minimum inhibitory concentration (MIC)", "setting": "[1]", "result": ">16", "unit": "mg/L"},
      {"measurement": "minimum inhibitory concentration (MIC)", "setting": "E. coli ATCC25922", "result": ">16", "unit": "mg/L"}
    ]}
  ]
}
